Legend:
NIH 3T3 cells = test: NIH3T3 cytotoxicity test (72 h MTT assay); assay type: cell-based; details: NIH3T3, 72 hours
Description: The cytotoxic effect of chemicals upon NIH 3T3 cells in culture is measured by cell metabolism determination using the previously described MIT assay. Healthy NIH 3T3 cells (an established cell-line), when maintained in culture continuously divide and multiply over time. The basis of this test is that a cytotoxic chemical (regardless of site or mechanism of action) will interfere with this process and, thus, result in a reduction of the growth rate as reflected by cell number. The degree of inhibition of growth, related to the concentration of the test compound, provides an indication of toxicity.
The NIH 3T3 cells are maintained in culture and exposed to test compounds over a range of concentrations and the number of viable cells determined after 72 hours exposure by MIT assay. The number of cells in the presence of test chemicals are compared to that observed in control cultures and the percent inhibition of growth calculated. The IC50 concentration (i.e. the concentration producing 50% inhibition of growth) is determined and expressed as μg/ml. A ratio of IC50 of NIH 3T3 cells to tumor cells is an indicator of predicted toxicity of the molecule and is represented as “Safety Index”. The higher the value, the better is the predicted safety of the molecule.

PA1 = test: three day MTT cytotoxicity assay, PA1; assay type: cell-based, human; details: for IC50 for cell lines PA1: PA1, 72 hours
Description: (§1) Briefly, a three day MTT cytotoxicity assay was performed, which is based on the principle of uptake of MTT (3-(4,5-dimethylthiazol-2-yl)-2,5-diphenyl tetrazolium bromide), a tetrazolium salt, by the metabolically active cells where it is metabolized by active mitochondria into a blue colored formazan product that is read spectrophotometrically. MIT was dissolved in phosphate buffered saline with a pH of 7.4 to obtain an MIT concentration of 5 mg/ml; the resulting mixture was filtered through a 0.22-micron filter to sterilize and remove a small amount of insoluble residue. For each type of tumor cell, 10,000 to 15,000 cells were seeded in a 96-well culture plate and incubated with the individual betulinic acid derivatives in a CO2 incubator for a total of 72 hours. Control cells not treated with the betulinic acid derivatives were similarly incubated. The assay was terminated by adding 100 μg (20 μl) of MIT to each well then incubating for additional one hour, and finally adding 50 μl of 10% SDS-0.01N HCl to each well to lyse the cells and dissolve formazan. After incubating for one hour, the plate was read spectrophotometrically at 540 nm and the percentage of cytotoxicity calculated using the following formula: Cytotoxicity percentage=100×[1−(X/R1)], where X=(absorbance of treated sample at 540 nm)−(absorbance of blank at 540 nm) R1=absorbance of control sample at 540 nm. The IC50 Values of the cytotoxicity defined as the concentration at which 50% of the cells are killed in vitro was calculated for each cell line treated with each of the betulinic acid derivatives.

DU145 = test: three day MTT cytotoxicity assay, DU145; assay type: cell-based, human; details: for IC50 for cell lines DU145: DU145, 72 hours
Description: (§2) A number of compounds listed in Table-3 were tested for cytotoxicity against prostate, lung, laryngeal, pancreas, breast, colon and ovarian cancer, leukemia and lymphoma, human tumor cell lines. Briefly, a three day MTT cytotoxicity assay was performed, which is based on the principle of uptake of MTT (3-(4,5-dimethylthiazol-2-yl)-2,5-diphenyl tetrazolium bromide), a tetrazolium salt, by the metabolically active cells where it is metabolized by active mitochondria into a blue colored formazan product that is read spectrophotometrically. MIT was dissolved in phosphate buffered saline with a pH of 7.4 to obtain an MIT concentration of 5 mg/ml; the resulting mixture was filtered through a 0.22-micron filter to sterilize and remove a small amount of insoluble residue. For each type of tumor cell, 10,000 to 15,000 cells were seeded in a 96-well culture plate and incubated with the individual betulinic acid derivatives in a CO2 incubator for a total of 72 hours. Control cells not treated with the betulinic acid derivatives were similarly incubated. The assay was terminated by adding 100 μg (20 μl) of MIT to each well then incubating for additional one hour, and finally adding 50 μl of 10% SDS-0.01N HCl to each well to lyse the cells and dissolve formazan. After incubating for one hour, the plate was read spectrophotometrically at 540 nm and the percentage of cytotoxicity calculated using the following formula: Cytotoxicity percentage=100×[1−(X/R1)], where X=(absorbance of treated sample at 540 nm)−(absorbance of blank at 540 nm) R1=absorbance of control sample at 540 nm. The IC50 Values of the cytotoxicity defined as the concentration at which 50% of the cells are killed in vitro was calculated for each cell line treated with each of the betulinic acid derivatives.

SW620 = test: three day MTT cytotoxicity assay, SW620; assay type: cell-based, human; details: for IC50 for cell lines SW620: SW620, 72 hours
Description: as §1

HBL100 = test: three day MTT cytotoxicity assay, HBL100; assay type: cell-based, human; details: for Specific Index (SI) for cell lines HBL100: ratio of IC50 of NIH 3T3 cells to HBL100
Description: as §2

Miapaca = test: three day MTT cytotoxicity assay, Miapaca; assay type: cell-based, human; details: for Specific Index (SI) for cell lines Miapaca: ratio of IC50 of NIH 3T3 cells to Miapaca
Description: as §2

A549 = test: three day MTT cytotoxicity assay, A549; assay type: cell-based, human; details: for Specific Index (SI) for cell lines A549: ratio of IC50 of NIH 3T3 cells to A549
Description: as §2

K562 = test: three day MTT cytotoxicity assay, K562; assay type: cell-based, human; details: for Specific Index (SI) for cell lines K562: ratio of IC50 of NIH 3T3 cells to K562
Description: as §2

Compound | IC50 for cell lines NIH3T3 (NIH 3T3 cells) | IC50 for cell lines PA1 (PA1) | IC50 for cell lines DU145 (DU145) | IC50 for cell lines SW620 (SW620) | IC50 for cell lines HBL100 (HBL100; HBL100, 72 hours, MTT) | Specific Index (SI) for cell lines HBL100 (HBL100) | IC50 for cell lines Miapaca (Miapaca; Miapaca, 72 hours, MTT) | Specific Index (SI) for cell lines Miapaca (Miapaca) | IC50 for cell lines A549 (A549; A549, 72 hours, MTT) | Specific Index (SI) for cell lines A549 (A549) | IC50 for cell lines K562 (K562; K562, 72 hours, MTT) | Specific Index (SI) for cell lines K562 (K562) | IC50 (NIH 3T3 cells; Mus musculus, read-out: IC50 for cell lines NIH3T3) | IC50 (PA1; Homo sapiens, PA-1, PA1, 72 hours, read-out: IC50 for cell lines PA1) | IC50 (DU145; Homo sapiens, DU-145, DU145, 72 hours, read-out: IC50 for cell lines DU145) | IC50 (SW620; Homo sapiens, SW-620, SW620, 72 hours, read-out: IC50 for cell lines SW620) | IC50 (HBL100; Homo sapiens, HBL-100, HBL100, 72 hours, MTT, read-out: IC50 for cell lines HBL100) | IC50 (Miapaca; Homo sapiens, MIA PaCa-2, Miapaca, 72 hours, MTT, read-out: IC50 for cell lines Miapaca) | IC50 (A549; Homo sapiens, A549, 72 hours, MTT, read-out: IC50 for cell lines A549) | IC50 (K562; Homo sapiens, K562, 72 hours, MTT, read-out: IC50 for cell lines K562)
C=C(C)[C@@H]1CC[C@]2(C(=O)O)CC[C@]3(C)[C@H](CC[C@@H]4[C@@]5(C)Cc6c([nH]c7c(Cl)cccc67)C(C)(C)[C@@H]5CC[C@]43C)[C@@H]12 [Compound 9, 7′-Chloro-2,3-didehydroindolo[2′,′:2,3]betulinic acid] | 11.8 ± 0.19 µg/mL | 6.39 µg/mL | 11.66 µg/mL | 2.008 µg/mL | 11.8 ± 0.35 µg/mL | 1 | 11.6 ± 0.49 µg/mL | 1.017 | 8.7 ± 0.19 µg/mL | 1.356 | 9.26 ± 1.6 µg/mL | 1.274 |  |  |  |  |  |  |  | 
CC(C)[C@@H]1CC[C@]2(C(=O)OCc3ccccc3)CC[C@]3(C)C(CCC4[C@@]5(C)Cc6c([nH]c7ccccc67)C(C)(C)C5CC[C@]43C)C12 (some centres unmarked) [Compound 16, 28-O-Benzyl-2,3-didehydro-20,29-dihydro[2′,3′:2,3]indolobetulinate] | >20 µg/mL | >20 µg/mL | >20 µg/mL | >20 µg/mL | >20 µg/mL |  | >20 µg/mL |  | >20 µg/mL |  | >20 µg/mL |  |  |  |  |  |  |  |  | 
C=C(C)[C@@H]1CC[C@]2(C(=O)NCC(=O)OC)CC[C@]3(C)C(CCC4[C@@]5(C)Cc6c([nH]c7ccc(Cl)cc67)C(C)(C)C5CC[C@]43C)C12 (some centres unmarked) [Compound 23, 28-N-Methylglycinate-5′-chloro-2,3-didehydroindolo[2′,3′:2,3]betulinamide] |  |  |  |  |  |  |  |  |  |  |  |  | > 20 µg/mL | > 20 µg/mL | > 20 µg/mL | > 20 µg/mL | > 20 µg/mL | > 20 µg/mL | > 20 µg/mL | > 20 µg/mL
C=C(C)[C@@H]1CC[C@]2(C(=O)Nc3nccs3)CC[C@]3(C)C(CCC4[C@@]5(C)Cc6c([nH]c7ccc(Cl)cc67)C(C)(C)C5CC[C@]43C)C12 (some centres unmarked) [Compound 26, 28-N-(2″-thiazole)-5′-chloro-2,3-didehydroindolo[2′,′:2,3]betulinamide] | >20 µg/mL | >20 µg/mL | >20 µg/mL | >20 µg/mL | >20 µg/mL |  | >20 µg/mL |  | >20 µg/mL |  | >20 µg/mL |  |  |  |  |  |  |  |  | 
C=C(C)[C@@H]1CC[C@]2(C(=O)Nc3ccccn3)CC[C@]3(C)C(CCC4[C@@]5(C)Cc6c([nH]c7ccc(Cl)cc67)C(C)(C)C5CC[C@]43C)C12 (some centres unmarked) [Compound 25, 28-N-(2″-pyridine)-5′-chloro-2,3-didehydroindolo[2′,′:2,3]betulinamide] | >20 µg/mL | >20 µg/mL | >20 µg/mL | >20 µg/mL | >20 µg/mL |  | >20 µg/mL |  | >20 µg/mL |  | >20 µg/mL |  |  |  |  |  |  |  |  | 
CC(C)[C@@H]1CC[C@]2(C(=O)O)CC[C@]3(C)[C@H](CC[C@@H]4[C@@]5(C)Cc6c([nH]c7ccc(F)cc67)C(C)(C)[C@@H]5CC[C@]43C)[C@@H]12 [Compound 8, 2,3-Didehydro-5′-fluoro-20,29-dihydroindolo[2′,′:2,3]betulinic acid] | 14.59 ± 0.33 µg/mL |  |  | 7.28 µg/mL | >20 µg/mL | <0.730 | 8.4 ± 0.76 µg/mL | 1.737 | 8.89 ± 0.84 µg/mL | 1.641 | 14.01 ± 0.75 µg/mL | 1.041 |  |  |  |  |  |  |  | 
C=C(C)[C@@H]1CC[C@]2(C(=O)O)CC[C@]3(C)C(CCC4[C@@]5(C)Cc6c(n(C)c7ccccc67)C(C)(C)C5CC[C@]43C)C12 (some centres unmarked) [Compound 3, 2,3-Didehydro-1′-methylindolo[2′,′:2,3]betulinic acid] | 15.12 ± 3.04 µg/mL |  | ≥ 20 µg/mL |  | 19.5 ± 2.1 µg/mL | 0.775 | 5.34 ± 0.96 µg/mL | 2.831 | 6.9 ± 0.21 µg/mL | 2.191 | 7.73 ± 0.17 µg/mL | 1.956 |  |  |  |  |  |  |  | 
CC(C)[C@@H]1CC[C@]2(C(=O)O)CC[C@]3(C)C(CCC4[C@@]5(C)Cc6c(n(C)c7ccccc67)C(C)(C)C5CC[C@]43C)C12 (some centres unmarked) [Compound 4, 2,3-Didehydro-20,29-dihydro-1′-methylindolo[2′,3′,2,3]betulinic acid] | >20 µg/mL | >20 µg/mL | >20 µg/mL |  | 14.14 ± 0.8 µg/mL | >1.414 | 5.4 ± 0.43 µg/mL | >3.703 | 6.5 ± 3.4 µg/mL | >3.076 | 10.85 ± 1.5 µg/mL | >1.843 |  |  |  |  |  |  |  | 
C=C(C)[C@@H]1CC[C@]2(C(=O)O)CC[C@]3(C)[C@H](CC[C@@H]4[C@@]5(C)Cc6c([nH]c7ccc(F)cc67)C(C)(C)[C@@H]5CC[C@]43C)[C@@H]12 [Compound 7, 2,3-Didehydro-5′-fluoroindolo[2′,′:2,3]betulinic acid] | >20 µg/mL |  |  | 9.16 µg/mL | >20 µg/mL |  | 17.4 ± 2.6 µg/mL | >1.149 | 17.8 ± 1.79 µg/mL | >1.123 | 10.95 ± 0.93 µg/mL | >1.826 |  |  |  |  |  |  |  | 
CC(C)[C@@H]1CC[C@]2(C(=O)O)CC[C@]3(C)[C@H](CC[C@@H]4[C@@]5(C)Cc6c(oc7ccccc67)C(C)(C)[C@@H]5CC[C@]43C)[C@@H]12 [Compound 12, 2,3-Didehydro-20,29-dihydrobenzfurano[2′,3′:2,3]betulinic acid] | 20 ± 5.6 µg/mL | >20 µg/mL | >20 µg/mL |  | >20 µg/mL | <1 | 8.8 ± 0.36 µg/mL | 2.273 | 7.1 ± 1.6 µg/mL | 2.817 | 15.28 ± 0.18 µg/mL | 1.309 |  |  |  |  |  |  |  | 
1′-Benzyl-2,3-didehydro-20,29-dihydro-4′-phenylpyrrolo[2′,′:2,3]betulinic acid [Compound 13] | >20 µg/mL | >20 µg/mL | >20 µg/mL | >20 µg/mL | >20 µg/mL |  | >20 µg/mL |  |  |  |  |  |  |  |  |  |  |  |  | 

Reference: patent US8022055B2, “Betulinic acid derivatives” (Dabur Pharma Limited, priority 2005, dated 2011)
